Test results as given in ChEMBL document CHEMBL5149982, “Development of Potent NEDD8-Activating Enzyme Inhibitors Bearing a Pyrimidotriazole Scaffold” (J Med Chem, 2021).

biological target: T1, NEDD8 activating enzyme (Homo sapiens, UniProt Q8TBC4); assay: Inhibition of NAE (unknown origin) mediated neddylation assessed as decrease in NEDD8-Ubcl2 adduct formation incubated for 2 hrs in presence of L-glutathione and ATP by HTRF assay; format: protein-complex assay
T1 sequence (Q8TBC4 whole entry): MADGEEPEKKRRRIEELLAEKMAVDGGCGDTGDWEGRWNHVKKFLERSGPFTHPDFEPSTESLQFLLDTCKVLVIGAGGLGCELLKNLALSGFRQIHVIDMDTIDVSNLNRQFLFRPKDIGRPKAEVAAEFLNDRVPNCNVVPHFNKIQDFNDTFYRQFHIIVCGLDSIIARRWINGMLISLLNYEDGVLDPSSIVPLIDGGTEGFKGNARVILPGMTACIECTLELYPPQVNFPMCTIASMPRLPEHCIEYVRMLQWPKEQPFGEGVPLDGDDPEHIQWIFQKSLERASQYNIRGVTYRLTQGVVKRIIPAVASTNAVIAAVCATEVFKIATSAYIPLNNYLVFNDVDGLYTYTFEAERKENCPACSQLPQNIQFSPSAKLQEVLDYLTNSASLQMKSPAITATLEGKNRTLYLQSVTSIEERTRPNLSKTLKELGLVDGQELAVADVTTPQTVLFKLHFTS
T1 sequence (Q13564 whole entry): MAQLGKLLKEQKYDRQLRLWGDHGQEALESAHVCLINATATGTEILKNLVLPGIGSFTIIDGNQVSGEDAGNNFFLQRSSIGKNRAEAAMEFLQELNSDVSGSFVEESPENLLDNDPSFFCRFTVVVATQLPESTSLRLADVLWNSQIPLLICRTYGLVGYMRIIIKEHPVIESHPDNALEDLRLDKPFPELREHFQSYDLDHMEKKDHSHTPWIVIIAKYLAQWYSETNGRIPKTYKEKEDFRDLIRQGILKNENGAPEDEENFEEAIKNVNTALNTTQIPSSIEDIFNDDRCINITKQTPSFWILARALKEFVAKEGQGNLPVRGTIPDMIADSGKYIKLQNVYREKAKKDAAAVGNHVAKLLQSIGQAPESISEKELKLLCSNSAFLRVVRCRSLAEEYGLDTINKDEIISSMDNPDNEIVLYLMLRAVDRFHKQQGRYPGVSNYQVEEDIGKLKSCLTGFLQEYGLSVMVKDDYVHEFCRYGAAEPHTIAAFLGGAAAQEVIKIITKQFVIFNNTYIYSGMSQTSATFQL

| SMILES | IC50 |
| --- | --- |
| NS(=O)(=O)OC[C@@H]1C[C@@H](n2nnc3c(Nc4n[nH]c5ccccc45)ncnc32)C[C@@H]1O | > 10000 nM |
| NS(=O)(=O)OC[C@@H]1C[C@@H](n2nnc3c(NCc4ccco4)ncnc32)C[C@@H]1O | 30.6 nM |
| NS(=O)(=O)OC[C@@H]1C[C@@H](n2nnc3c(NC4CCCC4)ncnc32)C[C@@H]1O | > 10000 nM |
| CCCCCCNc1ncnc2c1nnn2[C@@H]1C[C@@H](COS(N)(=O)=O)[C@@H](O)C1 | 21.1 nM |
| NS(=O)(=O)OC[C@@H]1C[C@@H](Nc2ncnc(N[C@H]3CCc4ccccc43)c2F)C[C@@H]1O | 219 nM |
| NS(=O)(=O)OC[C@@H]1C[C@@H](n2nnc3c(N[C@H]4CC5(CCNCC5)c5ccccc54)ncnc32)C[C@@H]1O | 66.9 nM |
| NS(=O)(=O)OC[C@@H]1C[C@@H](n2nnc3c(NCCc4cccs4)ncnc32)C[C@@H]1O | 107 nM |
| COC(=O)[C@H]1C=C[C@@H](Nc2ncnc3c2nnn3[C@@H]2C[C@@H](COS(N)(=O)=O)[C@@H](O)C2)C1 | 80.9 nM |
| COCC(=O)N[C@H]1Cc2ccccc2[C@H]1Nc1ncnc2c1nnn2[C@@H]1C[C@@H](COS(N)(=O)=O)[C@@H](O)C1 | 170 nM |
| NS(=O)(=O)OC[C@@H]1C[C@@H](n2nnc3c(NCCCc4ccccc4)ncnc32)C[C@@H]1O | 149 nM |
| NS(=O)(=O)OC[C@@H]1C[C@@H](n2nnc3c(Nn4ccc5ccccc54)ncnc32)C[C@@H]1O | > 10000 nM |
| NS(=O)(=O)OC[C@@H]1C[C@@H](n2nnc3c(N[C@H]4CC5(CCN(C(=O)OC(C(F)(F)F)C(F)(F)F)CC5)c5ccccc54)ncnc32)C[C@@H]1O | 21.1 nM |
| NS(=O)(=O)OC[C@@H]1C[C@@H](n2nnc3c(N[C@H]4CC5(CCN(C(=O)OC(CO)CO)CC5)c5ccccc54)ncnc32)C[C@@H]1O | 120 nM |
| NS(=O)(=O)OC[C@@H]1C[C@@H](n2nnc3c(NCCc4ccccc4)ncnc32)C[C@@H]1O | 81.8 nM |
| COCC(=O)N[C@@H]1Cc2ccccc2[C@H]1Nc1ncnc2c1nnn2[C@@H]1C[C@@H](COS(N)(=O)=O)[C@@H](O)C1 | > 10000 nM |
| NS(=O)(=O)OC[C@@H]1C[C@@H](n2ncc3c(N[C@H]4CCc5ccccc54)ccnc32)C[C@@H]1O | > 10000 nM |
| NS(=O)(=O)OC[C@@H]1C[C@@H](n2nnc3c(Nc4cnc5ccccn45)ncnc32)C[C@@H]1O | > 10000 nM |
| CN1CCC2(CC1)C[C@H](Nc1ncnc3c1nnn3[C@@H]1C[C@@H](COS(N)(=O)=O)[C@@H](O)C1)c1ccccc12 | 187 nM |
| CN(C)[C@H]1Cc2ccccc2[C@H]1Nc1ncnc2c1nnn2[C@@H]1C[C@@H](COS(N)(=O)=O)[C@@H](O)C1 | 207 nM |

Now from value to compound:

| IC50 | SMILES |
| --- | --- |
| 15.9 nM | NS(=O)(=O)OC[C@@H]1C[C@@H](n2nnc3c(NCc4cccs4)ncnc32)C[C@@H]1O |
| 9.98 nM | NS(=O)(=O)OC[C@@H]1C[C@@H](n2nnc3c(N[C@H]4CC5(CCN(C(=O)OCCN6CCOCC6)CC5)c5ccccc54)ncnc32)C[C@@H]1O |
| 9.76 nM | CC(C)(C)OC(=O)N1CCC2(CC1)C[C@H](Nc1ncnc3c1nnn3[C@@H]1C[C@@H](COS(N)(=O)=O)[C@@H](O)C1)c1ccccc12 |
| 6.11 nM | NS(=O)(=O)OC[C@@H]1C[C@@H](n2nnc3c(NCc4ccccc4F)ncnc32)C[C@@H]1O |
| 6 nM | NS(=O)(=O)OC[C@@H]1C[C@@H](n2nnc3c(N[C@H]4CC5(CCN(C(=O)OCCF)CC5)c5ccccc54)ncnc32)C[C@@H]1O |
| 5.77 nM | COCC(=O)N1CCC2(CC1)C[C@H](Nc1ncnc3c1nnn3[C@@H]1C[C@@H](COS(N)(=O)=O)[C@@H](O)C1)c1ccccc12 |
| 4.2 nM | CC(C)OC(=O)N1CCC2(CC1)C[C@H](Nc1ncnc3c1nnn3[C@@H]1C[C@@H](COS(N)(=O)=O)[C@@H](O)C1)c1ccccc12 |
| 3.56 nM | COCCO[C@H]1Cc2ccccc2[C@H]1Nc1ncnc2c1nnn2[C@@H]1C[C@@H](COS(N)(=O)=O)[C@@H](O)C1 |
| 2.28 nM | NS(=O)(=O)OC[C@@H]1C[C@@H](n2nnc3c(N[C@@H]4c5ccccc5C[C@@H]4O)ncnc32)C[C@@H]1O |
| 2.23 nM | CCOC(=O)N1CCC2(CC1)C[C@H](Nc1ncnc3c1nnn3[C@@H]1C[C@@H](COS(N)(=O)=O)[C@@H](O)C1)c1ccccc12 |
| 0.57 nM | NS(=O)(=O)OC[C@@H]1C[C@@H](n2nnc3c(N[C@H]4CC5(CCN(C(=O)O[C@@H]6CCOC6)CC5)c5ccccc54)ncnc32)C[C@@H]1O |
| 0.21 nM | NS(=O)(=O)OC[C@@H]1C[C@@H](n2nnc3c(N[C@H]4CCc5ccccc54)ncnc32)C[C@@H]1O |
| 0.02 nM | CC(C)(C)NC(=O)N1CCC2(CC1)C[C@H](Nc1ncnc3c1nnn3[C@@H]1C[C@@H](COS(N)(=O)=O)[C@@H](O)C1)c1ccccc12 |

biological target: T1, NEDD8 activating enzyme; assay: Inhibition of NAE (unknown origin); format: protein-complex assay

| IC50 | SMILES |
| --- | --- |
| 10 nM | NS(=O)(=O)OC[C@H]1O[C@@H](n2cnc3c(N[C@H]4CCc5ccccc54)ncnc32)[C@H](O)[C@@H]1O |
| 1 nM | CCOc1cccc(F)c1C#Cc1cn([C@@H]2O[C@H](COS(N)(=O)=O)[C@@H](O)[C@H]2O)c2ncnc(N)c12 |

tested on: HCT-116; assay: Antiproliferative activity against human HCT-116 cells assessed as cell growth inhibition by sulforhodamine B assay; format: functional, cell-based

| IC50 | SMILES |
| --- | --- |
| 94.4 nM | CC(C)(C)OC(=O)N1CCC2(CC1)C[C@H](Nc1ncnc3c1nnn3[C@@H]1C[C@@H](COS(N)(=O)=O)[C@@H](O)C1)c1ccccc12 |
| 151 nM | CC(C)(C)NC(=O)N1CCC2(CC1)C[C@H](Nc1ncnc3c1nnn3[C@@H]1C[C@@H](COS(N)(=O)=O)[C@@H](O)C1)c1ccccc12 |
| 102 nM | CCOC(=O)N1CCC2(CC1)C[C@H](Nc1ncnc3c1nnn3[C@@H]1C[C@@H](COS(N)(=O)=O)[C@@H](O)C1)c1ccccc12 |
| 121 nM | CC(C)OC(=O)N1CCC2(CC1)C[C@H](Nc1ncnc3c1nnn3[C@@H]1C[C@@H](COS(N)(=O)=O)[C@@H](O)C1)c1ccccc12 |
| > 10000 nM | NS(=O)(=O)OC[C@@H]1C[C@@H](n2nnc3c(NCc4cccs4)ncnc32)C[C@@H]1O |
| 338 nM | NS(=O)(=O)OC[C@@H]1C[C@@H](n2nnc3c(N[C@H]4CC5(CCN(C(=O)OCCN6CCOCC6)CC5)c5ccccc54)ncnc32)C[C@@H]1O |
| 3860 nM | NS(=O)(=O)OC[C@@H]1C[C@@H](n2nnc3c(NCc4ccccc4F)ncnc32)C[C@@H]1O |
| 43.2 nM | NS(=O)(=O)OC[C@@H]1C[C@@H](n2nnc3c(N[C@H]4CCc5ccccc54)ncnc32)C[C@@H]1O |
| 70.2 nM | COCCO[C@H]1Cc2ccccc2[C@H]1Nc1ncnc2c1nnn2[C@@H]1C[C@@H](COS(N)(=O)=O)[C@@H](O)C1 |
| 1420 nM | COCC(=O)N1CCC2(CC1)C[C@H](Nc1ncnc3c1nnn3[C@@H]1C[C@@H](COS(N)(=O)=O)[C@@H](O)C1)c1ccccc12 |
| 110 nM | NS(=O)(=O)OC[C@@H]1C[C@@H](n2nnc3c(N[C@H]4CC5(CCN(C(=O)O[C@@H]6CCOC6)CC5)c5ccccc54)ncnc32)C[C@@H]1O |
| 104 nM | NS(=O)(=O)OC[C@@H]1C[C@@H](n2nnc3c(N[C@H]4CC5(CCN(C(=O)OCCF)CC5)c5ccccc54)ncnc32)C[C@@H]1O |
| 38.8 nM | NS(=O)(=O)OC[C@@H]1C[C@@H](n2nnc3c(N[C@@H]4c5ccccc5C[C@@H]4O)ncnc32)C[C@@H]1O |

biological target: T1, NEDD8 activating enzyme; assay: Inhibition of NAE in human HCT-116 cells incubated for 1 hr by Western blot analysis; format: cell-based

| IC50 | SMILES |
| --- | --- |
| 8 nM | CCOc1cccc(F)c1C#Cc1cn([C@@H]2O[C@H](COS(N)(=O)=O)[C@@H](O)[C@H]2O)c2ncnc(N)c12 |

biological target: Voltage-gated inwardly rectifying potassium channel KCNH2 (Homo sapiens, UniProt Q12809); assay: Inhibition of hERG channel; format: toxicity
Sequence (Q12809 whole entry): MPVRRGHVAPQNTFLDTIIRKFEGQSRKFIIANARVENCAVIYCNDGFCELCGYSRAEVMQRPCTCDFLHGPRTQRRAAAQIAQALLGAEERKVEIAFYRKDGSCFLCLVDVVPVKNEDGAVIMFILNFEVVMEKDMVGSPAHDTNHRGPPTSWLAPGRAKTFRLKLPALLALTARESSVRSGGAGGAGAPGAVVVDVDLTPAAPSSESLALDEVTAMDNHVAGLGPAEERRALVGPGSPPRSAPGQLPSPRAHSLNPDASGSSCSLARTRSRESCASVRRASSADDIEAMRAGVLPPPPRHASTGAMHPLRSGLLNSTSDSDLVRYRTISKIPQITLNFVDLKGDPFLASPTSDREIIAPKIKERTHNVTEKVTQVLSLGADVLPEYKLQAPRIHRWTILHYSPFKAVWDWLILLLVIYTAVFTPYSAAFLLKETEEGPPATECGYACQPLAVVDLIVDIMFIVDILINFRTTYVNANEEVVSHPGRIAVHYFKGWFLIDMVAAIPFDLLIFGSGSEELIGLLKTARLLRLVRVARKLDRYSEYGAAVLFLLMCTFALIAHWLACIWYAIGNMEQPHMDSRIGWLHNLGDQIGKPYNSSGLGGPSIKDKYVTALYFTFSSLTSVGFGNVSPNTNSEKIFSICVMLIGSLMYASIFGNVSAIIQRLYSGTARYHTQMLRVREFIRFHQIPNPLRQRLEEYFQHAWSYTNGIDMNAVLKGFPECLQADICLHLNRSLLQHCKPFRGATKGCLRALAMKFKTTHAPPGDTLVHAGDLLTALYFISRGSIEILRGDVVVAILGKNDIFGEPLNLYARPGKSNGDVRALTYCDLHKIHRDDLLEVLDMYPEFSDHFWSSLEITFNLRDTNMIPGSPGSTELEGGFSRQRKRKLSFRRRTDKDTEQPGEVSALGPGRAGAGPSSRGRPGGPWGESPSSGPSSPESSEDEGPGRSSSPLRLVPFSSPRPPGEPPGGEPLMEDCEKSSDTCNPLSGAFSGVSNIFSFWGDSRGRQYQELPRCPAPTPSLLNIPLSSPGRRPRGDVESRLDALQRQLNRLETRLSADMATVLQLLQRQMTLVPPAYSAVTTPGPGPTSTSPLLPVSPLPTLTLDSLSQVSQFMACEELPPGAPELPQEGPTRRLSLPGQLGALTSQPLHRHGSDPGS

| SMILES | IC50 |
| --- | --- |
| CC(C)(C)OC(=O)N1CCC2(CC1)C[C@H](Nc1ncnc3c1nnn3[C@@H]1C[C@@H](COS(N)(=O)=O)[C@@H](O)C1)c1ccccc12 | > 40000 nM |
| NS(=O)(=O)OC[C@@H]1C[C@@H](n2nnc3c(N[C@H]4CCc5ccccc54)ncnc32)C[C@@H]1O | > 40000 nM |
| NS(=O)(=O)OC[C@@H]1C[C@@H](n2nnc3c(N[C@@H]4c5ccccc5C[C@@H]4O)ncnc32)C[C@@H]1O | > 40000 nM |
